These results are taken from US7674609B2, “Culture of Crypthecodinium cohnii and microorganisms derived therefrom” (The University of Hull, priority 2001, dated 2010).

What all share (type): cell-based
Assay [1] deals with Crypthecodinium cohnii ATCC 30772. The assay can be described thus: Culture of C. cohnii in acetic acid pH-stat fermenter with propionic acid in the medium (Example 1). The conditions noted are these: propionic acid 1% v/v. The protocol: The growth medium used for the first culture contained (initially) propionic acid (1% v/v), sodium acetate (8 g/L), yeast extract (7.5 g/L) and sea salts (25 g/L). The growth medium used for the second culture was the same but with the propionic acid omitted. Before use, the pH of each growth medium was adjusted to 6.5 by the addition of NaOH and the medium was then autoclaved at 121° C. for 1 hour.
The first and second cultures used the strain of Crypthecodinium cohnii available from the American Type Culture Collection and identified by the number 30772 (C. cohnii ATCC 30772).
The apparatus included a 5 L fermenter 10 of known type. The fermenter 10 was provided with a pH electrode 11 that was positioned in the fermenter 10 for monitoring the pH of the growth medium in the fermenter 10. The pH electrode 11 was connected via a control device 12 to a pump 13. The control device 12 was programmed to cause the pump 13 to pump acetic acid (50% v/v) from a reservoir 14 into the fermenter 10 when the pH electrode 11 detected a pH greater than a predetermined value (in this case pH 6.5 for both the first and second cultures).
If, during the culture, the pH fell below 6.5, the pH was brought back to 6.5 by adding KOH (2M). This was done automatically.
The fermenter 10 was also provided with a thermometer (not shown) and a heater (not shown) arranged to maintain the growth medium (and the C. cohnii 30772) at a desired temperature within the fermenter 10 (in this case 27° C. for both the first and second cultures).
The fermenter 10 was also provided with an aerator (not shown) that was connected to a source of air (not shown) for aerating the growth medium within the fermenter 10. An oxygen sensor (not shown) was positioned for measuring dissolved oxygen concentration in the growth medium within the fermenter 10. A stirrer (not shown) was provided for stirring the growth medium (and the C. cohnii 30772). The oxygen sensor was connected to the stirrer by a control device (not shown) for varying the speed of the stirrer in response to the oxygen concentration detected by the oxygen sensor so as to maintain the oxygen concentration at a desired level. For both the first and second cultures the aerator was set to aerate the culture at a rate of 1 volume of air per volume of culture per minute. The control device connected to the oxygen sensor and the stirrer was set so that the dissolved oxygen concentration was maintained above 30% of air saturation (the initial stirrer speed being 300 rpm).
To start each culture, 3.5 L of the appropriate growth medium was added to the fermenter 10. An inoculum of C. cohnii 30772 in 880 ml medium containing acetic acid/acetate, yeast extract and sea salt was then added to the fermenter (the preparation of the inoculum is described below). The fermenter 10 was then closed and the culture was heated to the desired operating temperature, aerated and stirred as described above.
In both the first and second cultures, the control device 12 caused the pump 13 to pump acetic acid into the fermenter 10 so as to maintain the pH at 6.5. This process, sometimes referred to as pH-stat operation, is described in detail in WO 01/04338. Briefly, it is believed that the Crypthecodinium cohnii metabolises the acetate in the growth medium (either in the form of acetate or acetic acid) as a carbon source. […]
During the first and second cultures, samples of the cultures were taken at time intervals. Each sample was analysed to determine dry cell weight. […]

Assay [2] concerns Crypthecodinium cohnii 30772. The assay can be described thus: Culture of C. cohnii with glucose as main carbon source with propionic acid in the medium (Example 2). The conditions noted are these: propionic acid 1% v/v, glucose 60 g/L. The protocol:
The growth medium used for the third culture contained (initially) propionic acid (1% v/v), glucose (60 g/L—autoclaved separately), yeast extract (7.5 g/L) and sea salts (25 g). The growth medium used for the fourth culture was the same but with the propionic acid omitted. In each case, the pH was 6.5. The microorganism used was Crypthecodinium cohnii 30772. For each of the third and fourth cultures, the Crypthecodinium cohnii was grown in a 5 L fermenter. The cultures were initiated by inoculating 3.5 L of the appropriate growth medium with 350 ml of a 3 day old shaking-flask culture of Crypthecodinium cohnii. The inoculum for the third culture was prepared using the same growth medium as that used in the third culture (i.e., with propionic acid) and the inoculum for the fourth culture was prepared using the same growth medium as that used in the fourth culture (i.e., without propionic acid). Cultures were aerated at 1 volume of air per volume of culture per minute and the dissolved oxygen concentration was maintained above 30% of air saturation by increasing the stirrer speed as required, from an initial speed of 300 rpm. The growth temperature was 27° C. and the pH was maintained at 6.5 by addition of KOH (2 M) and H2SO4 (1 M).

In assay [3] the test system is Crypthecodinium cohnii (ATCC 30541). The assay can be described thus: Culture of C. cohnii 30541 in acetic acid pH-stat fermenters with propionic acid (Example 3). The method, then:
The value of including propionic acid in the culture medium was also shown with another strain of Crypthecodinium cohnii (ATCC 30541). This strain was grown on acetic acid in pH-stat fermenters as described in Example 1 with and without the inclusion of propionic acid at 1% of the volume of the initial culture medium. [table]

Where [4] appears, read: first culture, acetic acid pH-stat.
Setting [5] is: 1% propionic acid versus without.
Setting [6] is: propionic acid 1%, samples after 140-150 hours growth.

With `CCC(=O)O` [propionic acid], in assay [1] (setting [4]), the “amount of DHA produced (overall)” value lay within 6 to 8 g/L, the cellular lipid content is listed as 55-65 % of the dry cell weight and the “content of docosahexaenoic acid” value is given as 35-40 % of the total lipid. Besides, the “forms of the microorganism present (cysts / swimmers), microscopic observation” value in assay [1] (first culture, after 24 hours) is on record as “only non-motile cysts were present”. The “dry cell weight in the first culture (with propionic acid) relative to the second culture (without propionic acid)” value in assay [1] (acetic acid/acetate carbon source, later stages of the cultures, FIG. 2) is on record as “approximately double”. Also, in assay [2] (FIG. 4), the “amount of total lipid produced relative to the fourth culture (without propionic acid)” value is on record as “greater than twice”. In addition, the “amount of docosahexaenoic acid produced relative to the fourth culture (without propionic acid)” value in assay [2] (FIG. 5) was “greater than twice”. Moreover, the “dry cell weight greater than in the fourth culture (without propionic acid)” value in assay [2] (later stages of the culture, FIG. 3) was “about 20%”. For the same compound, in assay [3] (setting [5]), the “increase in the amount of docosahexaenoic acid produced in the culture” value is “about 85%” and the “increase in the dry cell weight produced in the culture” value is reported as “over 60%”. Moreover, in assay [3] (setting [6]), the Cell dry wt was found to be 75 g/L, the DHA in lipid came out at 33 % w/w, the Lipid in cells stood at 20 % w/w and the “Total DHA produced” value worked out at 5 g/L.
